Results as given in US20090311217A1, “3-SUBSTITUTED-1H-INDOLE COMPOUNDS, THEIR USE AS MTOR KINASE AND PI3 KINASE INHIBITORS, AND THEIR SYNTHESES” (priority 2008, published 2009).

Experiments:
Format in all cases: biochemical
PI3K-gamma = PI3K-gamma (Homo sapiens, UniProt P48736); experiment: PI3K-gamma fluorescence polarization assay; settings: PI3Kγ Avg. IC50
Procedure, shortened: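 Reactions used 5 ng enzyme with 2.5 μM diC8-PI(4,5)P2 and 25 μM ATP in 5 mM HEPES pH 7, 2.5 mM MgCl2, run 1 h at 25° C. After an EDTA quench (10 mM), 100 nM GST-GRP1 PH domain and 5 nM BODIPY-TMR-IP4 were added and fluorescence polarization was read.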

human TOR = biological target: T1, human TOR (Homo sapiens, UniProt P42345); experiment: mTOR enzyme assay (DELFIA, His6-S6K substrate); settings: read-out: mTOR Kinase Avg. IC50
T1 construct: FLAG

PI3K-alpha = PI3K-alpha (Homo sapiens, UniProt P42336); experiment: PI3K-alpha fluorescence polarization assay; settings: read-out: PI3Kα Avg. IC50
PI3K-alpha, sequence (P42336 whole entry, species assumed): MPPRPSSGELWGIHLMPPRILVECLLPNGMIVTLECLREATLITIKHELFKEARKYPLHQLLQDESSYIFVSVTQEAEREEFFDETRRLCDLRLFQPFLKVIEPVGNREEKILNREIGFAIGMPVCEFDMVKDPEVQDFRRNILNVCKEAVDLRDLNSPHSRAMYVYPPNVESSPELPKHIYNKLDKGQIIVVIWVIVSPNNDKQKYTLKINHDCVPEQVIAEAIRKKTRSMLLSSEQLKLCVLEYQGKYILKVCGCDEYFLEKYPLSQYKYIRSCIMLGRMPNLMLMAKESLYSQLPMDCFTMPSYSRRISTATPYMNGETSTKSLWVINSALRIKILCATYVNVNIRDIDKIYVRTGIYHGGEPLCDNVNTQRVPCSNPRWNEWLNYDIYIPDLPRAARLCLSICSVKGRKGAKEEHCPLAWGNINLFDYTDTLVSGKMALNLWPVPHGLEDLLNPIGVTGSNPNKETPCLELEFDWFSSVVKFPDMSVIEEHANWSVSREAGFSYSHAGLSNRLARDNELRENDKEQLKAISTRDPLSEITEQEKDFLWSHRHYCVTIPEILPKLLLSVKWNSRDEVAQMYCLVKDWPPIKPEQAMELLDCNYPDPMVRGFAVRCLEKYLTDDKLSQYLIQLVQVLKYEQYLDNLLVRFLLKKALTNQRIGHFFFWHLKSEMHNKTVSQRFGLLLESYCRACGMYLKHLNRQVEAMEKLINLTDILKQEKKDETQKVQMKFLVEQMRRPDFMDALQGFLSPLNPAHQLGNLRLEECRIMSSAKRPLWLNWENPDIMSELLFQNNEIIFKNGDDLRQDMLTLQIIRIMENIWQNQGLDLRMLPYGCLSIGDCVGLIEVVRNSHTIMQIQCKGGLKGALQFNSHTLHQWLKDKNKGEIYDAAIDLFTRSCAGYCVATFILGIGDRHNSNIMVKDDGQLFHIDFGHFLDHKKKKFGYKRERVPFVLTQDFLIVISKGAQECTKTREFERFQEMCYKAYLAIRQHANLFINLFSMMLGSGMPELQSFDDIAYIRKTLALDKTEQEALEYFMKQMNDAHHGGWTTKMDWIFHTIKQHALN
PI3K-alpha, sequence (P27986 whole entry partner, species assumed): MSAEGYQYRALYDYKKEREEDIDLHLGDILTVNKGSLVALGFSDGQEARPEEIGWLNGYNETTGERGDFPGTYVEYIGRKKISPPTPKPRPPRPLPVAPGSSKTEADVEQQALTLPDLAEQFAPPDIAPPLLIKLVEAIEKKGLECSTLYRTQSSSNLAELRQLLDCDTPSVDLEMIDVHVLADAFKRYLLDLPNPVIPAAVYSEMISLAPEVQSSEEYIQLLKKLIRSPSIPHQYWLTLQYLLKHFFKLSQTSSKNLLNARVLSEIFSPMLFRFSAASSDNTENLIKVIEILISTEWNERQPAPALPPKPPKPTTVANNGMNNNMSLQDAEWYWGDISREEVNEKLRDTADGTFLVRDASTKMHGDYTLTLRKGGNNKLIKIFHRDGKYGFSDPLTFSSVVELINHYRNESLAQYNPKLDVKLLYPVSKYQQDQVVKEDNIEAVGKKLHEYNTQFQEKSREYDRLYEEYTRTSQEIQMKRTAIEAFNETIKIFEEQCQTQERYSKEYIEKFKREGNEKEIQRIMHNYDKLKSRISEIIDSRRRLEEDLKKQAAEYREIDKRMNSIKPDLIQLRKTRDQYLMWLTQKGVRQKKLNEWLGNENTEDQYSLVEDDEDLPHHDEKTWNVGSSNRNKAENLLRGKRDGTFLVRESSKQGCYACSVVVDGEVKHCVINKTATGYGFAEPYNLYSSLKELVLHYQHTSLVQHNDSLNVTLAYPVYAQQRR

PI3K-gamma, sequence (P48736 whole entry, species assumed, the tested form may be a part): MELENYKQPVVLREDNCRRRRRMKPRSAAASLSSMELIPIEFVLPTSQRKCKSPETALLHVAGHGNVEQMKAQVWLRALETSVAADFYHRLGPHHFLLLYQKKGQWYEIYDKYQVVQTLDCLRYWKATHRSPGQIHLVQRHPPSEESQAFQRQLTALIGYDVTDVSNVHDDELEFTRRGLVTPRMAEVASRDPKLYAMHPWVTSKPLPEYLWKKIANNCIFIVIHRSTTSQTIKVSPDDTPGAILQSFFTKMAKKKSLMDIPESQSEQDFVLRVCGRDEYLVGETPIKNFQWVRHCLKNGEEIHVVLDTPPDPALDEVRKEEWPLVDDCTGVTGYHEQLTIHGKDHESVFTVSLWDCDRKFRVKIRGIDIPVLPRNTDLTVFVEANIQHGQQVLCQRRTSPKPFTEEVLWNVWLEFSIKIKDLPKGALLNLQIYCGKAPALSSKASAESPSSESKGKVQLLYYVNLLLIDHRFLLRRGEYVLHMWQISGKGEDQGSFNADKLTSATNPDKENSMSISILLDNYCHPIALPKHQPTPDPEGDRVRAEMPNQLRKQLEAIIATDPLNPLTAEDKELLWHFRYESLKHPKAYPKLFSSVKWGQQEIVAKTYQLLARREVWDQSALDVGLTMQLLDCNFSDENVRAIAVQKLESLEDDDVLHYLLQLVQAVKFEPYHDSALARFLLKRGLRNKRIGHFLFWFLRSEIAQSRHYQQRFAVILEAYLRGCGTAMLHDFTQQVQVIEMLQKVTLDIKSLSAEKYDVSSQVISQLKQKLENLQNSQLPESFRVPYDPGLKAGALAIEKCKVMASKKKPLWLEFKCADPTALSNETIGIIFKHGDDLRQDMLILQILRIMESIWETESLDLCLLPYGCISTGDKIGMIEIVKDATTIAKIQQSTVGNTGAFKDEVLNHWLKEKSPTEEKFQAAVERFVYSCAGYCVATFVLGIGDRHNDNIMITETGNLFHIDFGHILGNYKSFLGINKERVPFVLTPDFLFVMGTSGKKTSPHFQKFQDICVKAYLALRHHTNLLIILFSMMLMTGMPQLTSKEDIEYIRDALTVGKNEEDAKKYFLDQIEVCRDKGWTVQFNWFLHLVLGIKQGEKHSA

Row | IC50 (PI3K-gamma) | IC50 (human TOR) | IC50 (PI3K-alpha) | SMILES
1 | 3770 nM | 16000 nM | 673 nM | COc1ccc2[nH]cc(/C=C3\Oc4c(ccc(O)c4O)C3=O)c2c1 [Example 62, (2Z)-6,7-dihydroxy-2-[(5-methoxy-1H-indol-3-yl)methylene]-1-benzofuran-3(2H)-one]
2 | 3770 nM | > 20000 nM | 384 nM | Cc1ccc2[nH]cc(/C=C3\Oc4c(ccc(O)c4O)C3=O)c2c1 [Example 65, (2Z)-6,7-dihydroxy-2-[(5-methyl-1H-indol-3-yl)methylene]-1-benzofuran-3(2H)-one]
3 | 302 nM | 8400 nM | 328 nM | O=C1/C(=C/c2c(-c3ccccc3)[nH]c3ccccc23)Oc2c(O)cccc21 [Example 67, (2Z)-7-hydroxy-2-[(2-phenyl-1H-indol-3-yl)methylene]-1-benzofuran-3(2H)-one]
4 | 3500 nM | > 20000 nM | 399 nM | COc1ccc2[nH]c(C)c(C=C3Oc4c(ccc(O)c4O)C3=O)c2c1 [Example 69, 6,7-dihydroxy-2-[(5-methoxy-2-methyl-1H-indol-3-yl)methylene]-1-benzofuran-3(2H)-one]
5 | 1200 nM | 2900 nM | 516 nM | COc1ccc2[nH]cc(C=C3Oc4cccc(O)c4C3=O)c2c1 [Example 78, 4-hydroxy-2-[(5-methoxy-1H-indol-3-yl)methylene]-1-benzofuran-3(2H)-one]
6 | 1220 nM | 1590 nM | 202 nM | COc1ccc2c(c1)c(C=C1Oc3c(ccc(O)c3O)C1=O)c(C)n2C [Example 90, 6,7-dihydroxy-2-[(5-methoxy-1,2-dimethyl-1H-indol-3-yl)methylene]-1-benzofuran-3(2H)-one]
7 | 6660 nM | 4450 nM | 1850 nM | O=C1C(=Cc2c[nH]c3cc(Br)ccc23)Oc2cc(O)cc(O)c21 [Example 143, 2-[(6-bromo-1H-indol-3-yl)methylene]-4,6-dihydroxy-1-benzofuran-3(2H)-one]
8 | 6000 nM | 1080 nM | 2450 nM | O=C1C(=Cc2c(-c3ccccc3)n(CCN3CCOCC3)c3ccccc23)Oc2cc(O)cc(O)c21 [Example 147, 4,6-dihydroxy-2-{[1-(2-morpholin-4-ylethyl)-2-phenyl-1H-indol-3-yl]methylene}-1-benzofuran-3(2H)-one]
9 | 4710 nM | 500 nM | 2680 nM | CN(C)CCn1c(-c2ccccc2)c(C=C2Oc3cc(O)cc(O)c3C2=O)c2ccccc21 [Example 148, 2-({1-[2-(dimethylamino)ethyl]-2-phenyl-1H-indol-3-yl}methylene)-4,6-dihydroxy-1-benzofuran-3(2H)-one]
10 | 2010 nM | 6150 nM | 1590 nM | O=C1C(=Cc2c(-c3ccccc3)n(Cc3ccccc3)c3ccccc23)Oc2cc(O)cc(O)c21 [Example 149, 2-[(1-benzyl-2-phenyl-1H-indol-3-yl)methylene]-4,6-dihydroxy-1-benzofuran-3(2H)-one]
11 | 2190 nM | 6450 nM | 2230 nM | CC(C)Cn1c(-c2ccccc2)c(C=C2Oc3cc(O)cc(O)c3C2=O)c2ccccc21 [Example 150, 4,6-dihydroxy-2-[(1-isobutyl-2-phenyl-1H-indol-3-yl)methylene]-1-benzofuran-3(2H)-one]
12 | 4220 nM | 710 nM | 2110 nM | COCCn1c(-c2ccccc2)c(C=C2Oc3cc(O)cc(O)c3C2=O)c2ccccc21 [Example 151, 4,6-dihydroxy-2-{[1-(2-methoxyethyl)-2-phenyl-1H-indol-3-yl]methylene}-1-benzofuran-3(2H)-one]
13 | 4470 nM | 1450 nM | 4180 nM | O=C1C(=Cc2c(-c3ccccc3)n(CC3CC3)c3ccccc23)Oc2cc(O)cc(O)c21 [Example 152, 2-{[1-(cyclopropylmethyl)-2-phenyl-1H-indol-3-yl]methylene}-4,6-dihydroxy-1-benzofuran-3(2H)-one]
14 | 5350 nM | 80 nM | 516 nM | N#CCCCn1c(-c2ccccc2)c(C=C2Oc3cc(O)cc(O)c3C2=O)c2ccccc21 [Example 155, 4-{3-[(4,6-dihydroxy-3-oxo-1-benzofuran-2(3H)-ylidene)methyl]-2-phenyl-1H-indol-1-yl}butanenitrile]
15 | 6000 nM | 1600 nM | 1290 nM | CN(C)CCCn1c(-c2ccccc2)c(C=C2Oc3cc(O)cc(O)c3C2=O)c2ccccc21 [Example 156, 2-({1-[3-(dimethylamino)propyl]-2-phenyl-1H-indol-3-yl}methylene)-4,6-dihydroxy-1-benzofuran-3(2H)-one]
16 | 2430 nM | 2500 nM | 1520 nM | O=C1C(=Cc2c(-c3ccccc3)n(CCN3CCCC3)c3ccccc23)Oc2cc(O)cc(O)c21 [Example 157, 4,6-dihydroxy-2-{[2-phenyl-1-(2-pyrrolidin-1-ylethyl)-1H-indol-3-yl]methylene}-1-benzofuran-3(2H)-one]

Row | IC50 (PI3K-gamma) | IC50 (human TOR) | IC50 (PI3K-alpha) | SMILES
17 | 4880 nM | 4600 nM | 2280 nM | O=C1C(=Cc2c(-c3ccccc3)n(CCC3CCNCC3)c3ccccc23)Oc2cc(O)cc(O)c21 [Example 158, 4,6-dihydroxy-2-{[2-phenyl-1-(2-piperidin-4-ylethyl)-1H-indol-3-yl]methylene}-1-benzofuran-3(2H)-one]
18 | 5120 nM | 1800 nM | 2860 nM | CN1CCN(CCn2c(-c3ccccc3)c(C=C3Oc4cc(O)cc(O)c4C3=O)c3ccccc32)CC1 [Example 159, 4,6-dihydroxy-2-({1-[2-(4-methylpiperazin-1-yl)ethyl]-2-phenyl-1H-indol-3-yl}methylene)-1-benzofuran-3(2H)-one]
19 | 3850 nM | 5200 nM | 251 nM | O=C1C(=Cc2c[nH]c3ccc(O)cc23)Oc2cc(O)cc(O)c21 [Example 164, 4,6-dihydroxy-2-[(5-hydroxy-1H-indol-3-yl)methylene]-1-benzofuran-3(2H)-one]
20 | > 10000 nM | > 20000 nM | 9500 nM | O=C(O)c1ccc2[nH]cc(C=C3Oc4cc(O)cc(O)c4C3=O)c2c1 [Example 165, 3-[(4,6-dihydroxy-3-oxo-1-benzofuran-2(3H)-ylidene)methyl]-1H-indole-5-carboxylic acid]
21 | > 10000 nM | > 20000 nM | 2030 nM | O=C1C(=Cc2c[nH]c3cccc(Cl)c23)Oc2cc(O)cc(O)c21 [Example 171, 2-[(4-chloro-1H-indol-3-yl)methylene]-4,6-dihydroxy-1-benzofuran-3(2H)-one]
22 | > 10000 nM | 17000 nM | 766 nM | O=C1C(=Cc2c[nH]c3c(Cl)cccc23)Oc2cc(O)cc(O)c21 [Example 173, 2-[(7-chloro-1H-indol-3-yl)methylene]-4,6-dihydroxy-1-benzofuran-3(2H)-one]
23 | > 10000 nM | 7100 nM | 1510 nM | O=C1C(=Cc2c[nH]c3cccc(Br)c23)Oc2cc(O)cc(O)c21 [Example 174, 2-[(4-bromo-1H-indol-3-yl)methylene]-4,6-dihydroxy-1-benzofuran-3(2H)-one]
24 | > 10000 nM | 9000 nM | 1040 nM | O=C1C(=Cc2c[nH]c3ccc(F)cc23)Oc2cc(O)cc(O)c21 [Example 175, 2-[(5-fluoro-1H-indol-3-yl)methylene]-4,6-dihydroxy-1-benzofuran-3(2H)-one]
25 | 3360 nM | 9100 nM | 187 nM | O=C1C(=Cc2c[nH]c3ccc(I)cc23)Oc2cc(O)cc(O)c21 [Example 177, 4,6-dihydroxy-2-[(5-iodo-1H-indol-3-yl)methylene]-1-benzofuran-3(2H)-one]
26 | > 10000 nM | 12000 nM | 1110 nM | N#Cc1ccc2[nH]cc(C=C3Oc4cc(O)cc(O)c4C3=O)c2c1 [Example 182, 3-[(4,6-dihydroxy-3-oxo-1-benzofuran-2(3H)-ylidene)methyl]-1H-indole-5-carbonitrile]
27 | > 10000 nM | 260 nM | 1800 nM | Cn1cc(C=C2Oc3cc(O)cc(O)c3C2=O)c2c(C#N)cccc21 [Example 188, 3-[(4,6-dihydroxy-3-oxo-1-benzofuran-2(3H)-ylidene)methyl]-1-methyl-1H-indole-4-carbonitrile]
28 | 11000 nM | 140 nM | 2710 nM | Cn1c(-c2cccnc2)c(C=C2Oc3cc(O)cc(O)c3C2=O)c2ccccc21 [Example 189, 4,6-dihydroxy-2-[(1-methyl-2-pyridin-3-yl-1H-indol-3-yl)methylene]-1-benzofuran-3(2H)-one]
29 | 8540 nM | 120 nM | 2120 nM | Cn1c(-c2ccncc2)c(C=C2Oc3cc(O)cc(O)c3C2=O)c2ccccc21 [Example 190, 4,6-dihydroxy-2-[(1-methyl-2-pyridin-4-y1-1H-indol-3-yl)methylene]-1-benzofuran-3(2H)-one]
30 | 7660 nM | 85 nM | 1120 nM | Cn1c(-c2ccc(O)cc2)c(C=C2Oc3cc(O)cc(O)c3C2=O)c2ccccc21 [Example 193, 4,6-dihydroxy-2-{[2-(4-hydroxyphenyl)-1-methyl-1H-indol-3-yl]methylene}-1-benzofuran-3(2H)-one]
31 | 3290 nM | 230 nM | 837 nM | Cn1c(-c2ccsc2)c(C=C2Oc3cc(O)cc(O)c3C2=O)c2ccccc21 [Example 194, 4,6-dihydroxy-2-{[1-methyl-2-(3-thienyl)-1H-indol-3-yl]methylene}-1-benzofuran-3(2H)-one]
32 | 9160 nM | 280 nM | 1100 nM | Cn1c(-c2cccc(F)c2)c(C=C2Oc3cc(O)cc(O)c3C2=O)c2ccccc21 [Example 197, 2-{[2-(3-fluorophenyl)-1-methyl-1H-indol-3-yl]methylene}-4,6-dihydroxy-1-benzofuran-3(2H)-one]
